The record followed here is ChEMBL document CHEMBL1201862, “PubChem BioAssay data set” (2004).

Holding throughout (assay): growth of human tumour cells (NCI), 48 h
The subject of assay [1] is DLD-1.
In assay [2] the test system is DMS-273.
Assay [3] concerns HOP-18.
Assay [4] has as its system KM-20L2.
Assay [5] relates to LXFL 529.
Assay [6] concerns M19-MEL.
Assay [7] concerns RXF 631.
For assay [8], the system named is SNB-78.
In assay [9] the test system is XF498.

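Cultured in 96-well plates, cells were exposed to test compound for 48 hours across five concentrations. GI50: concentration for 50% inhibition of growth.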 Active and inactive are the calls of the source. Cut-off read from the data, not from the text of the source: active = GI50 up to about 1.1 µM and inactive = higher.

On to `O=Cc1ccc(-c2cccs2)s1`, for which the GI50 is > 63.1 µM (inactive) in [1]; > 100 µM (inactive) in assay [2]; > 62.8 µM (inactive) in [3]; 47.9 µM (inactive) in [4]; 1.76 µM (inactive) in assay [5]; > 100 µM (inactive) in assay [6]. The GI50 was 5.08 µM (inactive) in assay [7], > 100 µM (inactive) in assay [8] and 4.33 µM (inactive) in [9].

Turning to `C/C=C/C1=C(Cl)C(=O)[C@@H](Cl)[C@@]1(O)C(=O)OC` [(+)-CRYPTOSPORIPSIN], the GI50 was 2.28 µM (inactive) in assay [1]; 3.54 µM (inactive) in assay [2]; 4.09 µM (inactive) in [3]; 4.68 µM (inactive) in [4]; 2.64 µM (inactive) in [5]; 2.55 µM (inactive) in assay [6]. For the same molecule, the GI50 in [7] is 10.5 µM (inactive); in assay [8] it was 5.18 µM (inactive); in [9] it was 2.82 µM (inactive).

On to `CN(C)CCNc1ccc2nnn3c4ccccc4c(=O)c1c23`, for which the GI50 is 3.61 µM (inactive) in assay [1]; 3.2 µM (inactive) in assay [2]; 2.68 µM (inactive) in assay [4]; 3.6 µM (inactive) in [5]; 2.86 µM (inactive) in assay [6]; 1.81 µM (inactive) in assay [7]. In addition, the figures for the GI50 in [8] and in assay [9] were 6.34 µM (inactive) and 6.38 µM (inactive), respectively.

With `COC1CC(OS(=O)(=O)c2ccc([N+](=O)[O-])cc2)C(OC(=O)c2ccccc2)C(C)O1` (stereo not given), the GI50 in assay [1], in [2], in assay [3], in assay [4], in assay [5] and in assay [6] was > 100 µM (inactive) in each case. For the same molecule, the results for the GI50 in [7], in [8] and in assay [9] were 58.5 µM (inactive), > 100 µM (inactive) and 31.8 µM (inactive), respectively.

`CCOC(=O)C1S/C(=N\c2ccccc2)N=C1C` (stereo not given): the GI50 is 49.9 µM (inactive) in assay [1]; > 100 µM (inactive) in assay [3]; 55.7 µM (inactive) in assay [4]; 65.8 µM (inactive) in assay [5]; > 100 µM (inactive) in assay [6]; > 100 µM (inactive) in assay [7]. Moreover, the results for the GI50 in assay [8] and in [9] were 83 µM (inactive) and > 100 µM (inactive), respectively.

`CCCCCCCCCCC(O)CCCCCCC(=O)O` (stereo not given): the GI50 was 19.3 µM (inactive) in assay [1]; 22.4 µM (inactive) in assay [2]; 27.9 µM (inactive) in assay [3]; 23.4 µM (inactive) in assay [5]; 35.6 µM (inactive) in assay [6]; 19.1 µM (inactive) in [7]. Besides, the GI50 in assay [8] is > 100 µM (inactive); in [9], 29.8 µM (inactive).

In the case of `O=C(OCc1ccccc1)N1N=NC2C3CC(OCc4ccccc4)(OCc4ccccc4)C(O3)C21` (stereo not given), the GI50 in assay [1] was 16.9 µM (inactive); in assay [2] it was 15.5 µM (inactive); in assay [3], 20.6 µM (inactive); in assay [4], 40.7 µM (inactive); in assay [5], 18.8 µM (inactive); in [6] it was 24.4 µM (inactive). In addition, the GI50 in assay [7] was 46 µM (inactive); in assay [8] it was 43.7 µM (inactive); in assay [9], 22.7 µM (inactive).

With `O=S1(=O)CS(=O)(=O)OCCO1`, the GI50 is 54.7 µM (inactive) in [1]; 51.1 µM (inactive) in assay [2]; > 100 µM (inactive) in assay [3]; 76.6 µM (inactive) in assay [4]; > 100 µM (inactive) in [5]; 48.8 µM (inactive) in [6]. The GI50 in assay [7] was 47.8 µM (inactive); in assay [8], 17.4 µM (inactive); in assay [9], 15 µM (inactive).

Consider `CCN(CC)c1ccc(/C=C2/C[N+](C)(C)C/C(=C/c3ccc(N(CC)CC)cc3)C2=O)cc1`, for which the GI50 in assay [1] was 9.59 µM (inactive); in assay [3] it was 6.61 µM (inactive); in assay [4], 2.59 µM (inactive); in [5] it was 1.1 µM (active); in assay [6] it was 1.45 µM (inactive); in assay [7], > 30.3 µM (inactive). For the same molecule, the results for the GI50 in assay [8] and in [9] were 2.82 µM (inactive) and 2.48 µM (inactive), respectively.

Regarding `O=C1C(=O)N(c2ccc(Cl)cc2)C(=O)/C(=N/c2cccc3c(=O)[nH][nH]c(=O)c23)C1c1nc2ccccc2o1` (stereo not given), the GI50 in assay [1], in assay [2], in [3], in assay [4], in assay [5] and in [6] was > 100 µM (inactive) throughout. Also, the GI50 in assay [7] and in assay [8] was > 100 µM (inactive) throughout.
